{"source": "patent EP4398053A1", "about": "“CONTROL METHOD FOR […] OF A DYNAMIC SYSTEM AND […]” (Universidade de Aveiro, priority 2023, dated 2024)", "origin": "cited, not measured here", "details": "drug elimination within the body; drug-specific model parameter", "data": [{"smiles": "O=P1(N(CCCl)CCCl)NCCCO1", "note": "(stereo not shown) [Cyclophosphamide]", "values": [{"measurement": "drug elimination rate λ", "value": 4.16, "unit": "day⁻¹"}]}]}
